Measured values taken from patent publication US10556896B2, “Crystalline forms of (3-Amino-oxetan-3-ylmethyl)-[2-(5,5-dioxo-5,6,7,9-tetrahydro-5lambda*6*-thia-8-aza-benzocyclohepten-8-yl)-6-methyl-quinazolin-4-yl]-amine” (Hoffmann-La Roche Inc., priority 2016, dated 2020).
In brackets after ≈: the same amount, converted by molar mass.

What was measured:
Assay type in all cases: physicochemical
[1] = Equilibrium aqueous solubility in bio-relevant media (SGF, FaSSIF, FeSSIF); conditions: for Final pH (FaSSIF) / Final pH (FeSSIF) / Final pH (SGF): after equilibration at 25° C. for 24 hours
Description: Aqueous solubility was determined by suspending 10 mg compound in different bio-relevant media including SGF, FaSSIF and FeSSIF. The suspension was equilibrated at 25° C. for 24 hours then the final pH was measured. The suspension was then filtered through a 0.22 um PVDF filter into a 2-mL HPLC vial. The quantitation was conducted by HPLC (described in Example 10) with reference to a standard solution.

[2] = Hygroscopicity of crystal forms by dynamic vapour sorption (DVS); conditions: for Hygroscopicity, water sorption @80% RH: 25° C.; for Hygroscopicity (result in words): compared with Form D
Description: Dynamic vapour sorption (DVS) was tested using a DVS intrinsic from SMS (Surface Measurement Systems Co. Ltd.). 20 mg compound (I) of each crystal form was placed in an aluminium sample pan and recorded the sample weight change under different humidity. The DVS method parameters were set according to Table 16, and the method was run by the machine based on such parameters. [table]

[3] = Chemical stability of crystal forms (storage, HPLC chemical purity)
Description: HPLC condition is disclosed here in Table 1-1. [table] 40 mg compound (I) of crystal Forms C, E and F were stored in stability chamber with temperature and humidity controlled as 50° C. and 40° C./75% RH respectively, 40 mg compound (I) of Form B was stored at 105° C. oven. After each time point, the samples were analyzed by HPLC to check their chemical purity and compared with their initial value.

S, mg/mL (FaSSIF) ([1]; 25° C., 24 hours) [mg/mL] | Final pH (FaSSIF) [1] | S, mg/mL (FeSSIF) ([1]; FeSSIF, 25° C., 24 hours) [mg/mL] | Final pH (FeSSIF) ([1]; FeSSIF) | Final pH (SGF) [1] | Hygroscopicity, water sorption @80% RH [2] [% water sorption @80% RH] | Hygroscopicity (result in words) [2] | Chemical Purity, % ([3]; 40° C./75% RH, 1 month) [%] | Chemical Purity, % ([3]; 50° C., 1 month) [%] | Chemical Purity, % ([3]; Initial) [%] | S, mg/mL (SGF) ([1]; 25° C., 24 hours) [mg/mL] | Chemical Purity, % ([3]; 105° C., 24 hr) [%] | solubility thermodynamic at 24 h ([1]; FeSSIF, 25 °C, fessif, thermodynamic from solid, FeSSIF, 25° C., 24 hours, read-out: S, mg/mL (FeSSIF)) [mg/mL] | SMILES
1.58 | 4.99 | 1.99 | 5.18 | 3.15 | 0.50 | much improved hygroscopicity than Form D | 99.42 | 99.43 | 99.62 | – | – | – | Cc1ccc2nc(N3CCS(=O)(=O)c4ccccc4C3)nc(NCC3(N)COC3)c2c1 [Example 6, Form F of compound (I), (3-Amino-oxetan-3-ylmethyl)-[2-(5,5-dioxo-5,6,7,9-tetrahydro-5lambda*6*-thia-8-aza-benzocyclohepten-8-yl)-6-methyl-quinazolin-4-yl]-amine]
0.12 | 6.60 | 1.72 | 5.31 | 4.80 | 0.25 | much improved hygroscopicity than Form D | – | – | – | 2.40 | – | – | Cc1ccc2nc(N3CCS(=O)(=O)c4ccccc4C3)nc(NCC3(N)COC3)c2c1 [Example 1, Form A of compound (I), (3-Amino-oxetan-3-ylmethyl)-[2-(5,5-dioxo-5,6,7,9-tetrahydro-5lambda*6*-thia-8-aza-benzocyclohepten-8-yl)-6-methyl-quinazolin-4-yl]-amine]
– | – | – | – | – | – | – | – | – | 99.81 | – | 99.80 | – | Cc1ccc2nc(N3CCS(=O)(=O)c4ccccc4C3)nc(NCC3(N)COC3)c2c1 [Example 2, Form B of compound (I), (3-Amino-oxetan-3-ylmethyl)-[2-(5,5-dioxo-5,6,7,9-tetrahydro-5lambda*6*-thia-8-aza-benzocyclohepten-8-yl)-6-methyl-quinazolin-4-yl]-amine]
0.90 | 5.31 | – | 5.34 | 4.69 | 1.12 | much improved hygroscopicity than Form D | 99.14 | 99.45 | 99.49 | >5 | – | 2.18 (≈ 4.96 mM) | Cc1ccc2nc(N3CCS(=O)(=O)c4ccccc4C3)nc(NCC3(N)COC3)c2c1 [Example 5, Form E of compound (I), (3-Amino-oxetan-3-ylmethyl)-[2-(5,5-dioxo-5,6,7,9-tetrahydro-5lambda*6*-thia-8-aza-benzocyclohepten-8-yl)-6-methyl-quinazolin-4-yl]-amine]
0.11 | 6.63 | 1.88 | 5.26 | 4.92 | 0.04 | much improved hygroscopicity than Form D | 99.28 | 99.32 | 99.30 | 3.81 | – | – | Cc1ccc2nc(N3CCS(=O)(=O)c4ccccc4C3)nc(NCC3(N)COC3)c2c1 [Example 3, Form C of compound (I), (3-Amino-oxetan-3-ylmethyl)-[2-(5,5-dioxo-5,6,7,9-tetrahydro-5lambda*6*-thia-8-aza-benzocyclohepten-8-yl)-6-methyl-quinazolin-4-yl]-amine]

SMILES | S, mg/mL (FaSSIF) ([1]; 25° C., 24 hours) [mg/mL] | Final pH (FaSSIF) [1] | S, mg/mL (FeSSIF) ([1]; FeSSIF, 25° C., 24 hours) [mg/mL] | Final pH (FeSSIF) ([1]; FeSSIF) | Final pH (SGF) [1] | Hygroscopicity, water sorption @80% RH [2] [% water sorption @80% RH] | Hygroscopicity (result in words) [2] | Chemical Purity, % ([3]; 40° C./75% RH, 1 month) [%] | Chemical Purity, % ([3]; 50° C., 1 month) [%] | Chemical Purity, % ([3]; Initial) [%] | S, mg/mL (SGF) ([1]; 25° C., 24 hours) [mg/mL] | Chemical Purity, % ([3]; 105° C., 24 hr) [%] | solubility thermodynamic at 24 h ([1]; FeSSIF, 25 °C, fessif, thermodynamic from solid, FeSSIF, 25° C., 24 hours, read-out: S, mg/mL (FeSSIF)) [mg/mL]
Cc1ccc2nc(N3CCS(=O)(=O)c4ccccc4C3)nc(NCC3(N)COC3)c2c1 [Example 4, Form D of compound (I), (3-Amino-oxetan-3-ylmethyl)-[2-(5,5-dioxo-5,6,7,9-tetrahydro-5lambda*6*-thia-8-aza-benzocyclohepten-8-yl)-6-methyl-quinazolin-4-yl]-amine] | – | – | – | – | – | 7.52 | not suitable for further drug development | – | – | – | – | – | –
